{
  "source": "patent US20120142634A1",
  "about": "“Method of Treating Cancer with a Combination of a Proteasome Inhibitor and Salubrinal” (MOUNT SINAI SCHOOL OF MEDICINE OF NEW YORK UNIVERSITY, priority 2008, published 2012)",
  "format_in_all_cases": "cell-based",
  "key": {"[1]": {"tested_on": "K-562 chronic myeloid leukemia cells", "experiment": "Bortezomib-induced killing, with or without Salubrinal"}, "RPMI8226 cells [2]": {"tested_on": "RPMI8226 cells", "experiment": "Cell cycle analysis by propidium iodide staining and flow cytometry", "details": "for cell death (sub-G0 population): MG-132 400 nM or Bortezomib 4 nM, 24-48 hours", "procedure": "(§1) Reagents, antibodies, RT-PCR, cell lines and tissue culture, plasmids. Proteasome inhibitor (MG-132, Velcade®; each commercially available) treatments were performed using 400 nM MG-132 or 4 nM Bortezomib (Velcade®) for 24 hours. The drug was then removed by serial washes with PBS and the remaining viable cells were replated. Salubrinal treatments were performed using the drug at 5 or 10 μg/ml, as indicated, for 24 hours. RPMI8226 cells contain a c-MYC insertion on t(16;22)(q32;q11):der16; U266B1 cells (t(11;14)) were from ATCC. Cells were cultured according to ATCC recommendations. Antibodies (identified by the antigen specifically recognized): p-Rb, Rb, p-eIF2α, eIF2α, GCN2, p-GCN2, p-PKR and PKR from Cell Signaling (Beverly, Mass.), p-PERK and PERK from Santa Cruz Biotechnology (Santa Cruz, Calif.), BiP from BD (San Jose, Calif.), GAPDH from Calbiochem (Beverly, Mass.), and β-tubulin from Abcam (Cambridge, Mass.). Total RNA was extracted using Trizol (Invitrogen, Carlsbad, Calif.). Primer sequences were published previously (Sequeira, et al., PLoS ONE 2(7):e615 2007, incorporated herein by reference in its entirety). The pCLBabe-eIF2αS51D plasmid was provided by Dr. David Schubert (Salk Institute, La Jolla, Calif.) and can be constructed using known techniques. Transfection of RPMI8226 cells was performed using Amaxa technology according to the manufacturer's instructions (Gaithersburg, Md.).\nCell cycle analysis, label retention assay. Cell cycle analysis was performed using propidium iodide (PI)/RNAse staining buffer from BD according to the manufacturer's instruction. For label retention and viability quantification, cells were treated with proteasome inhibitors or DMSO for 24 hours, then stained with 50 nM CFDA/SE (Molecular Probes, Eugene, Oreg.) for 15 minutes and replated. Prior to analysis, cells were stained using Hoechst-33342 (10 μg/ml) for 15 minutes at 4° C. to determine cell viability. Cells were then fixed using 3% paraformaldehyde for 20 minutes and analyzed by flow cytometry (LSR-II from BD)."}, "[3]": {"tested_on": "diffuse B-cell lymphoma U937 cells", "experiment": "Bortezomib-induced killing, with or without Salubrinal", "details": "4 nM Bortezomib"}, "HEp3 HNSCC cells": {"tested_on": "HEp3 HNSCC cells", "experiment": "Bortezomib-induced killing, with or without Salubrinal"}, "[4]": {"tested_on": "Raji Burkitt's lymphoma cells", "experiment": "Bortezomib-induced killing, with or without Salubrinal"}, "eIF2α": {"tested_on": "eIF2α", "experiment": "Western blot for eIF2α phosphorylation in RPMI8226 cells", "details": "for eIF2α phosphorylation: single agent, acute phase (Salubrinal 8 hours; MG-132 8-24 hours)", "procedure": "as §1, with “Salubrinal treatments were performed using the drug at 5 or 10 μg/ml, as indicated, for 24 hours.” left out\n(§2) Viability assay, Immunoblotting. Cell viability was assessed using trypan blue. Immunoblotting was performed using convention techniques, as described previously Aguirre-Ghiso, et al., Cancer Res. 63(7):1684-1695 2003, incorporated herein by reference in its entirety.\n(§3) Image quantification and statistical analysis. Image quantification was performed using ImageJ from NIH. Statistical analyses were performed using Prism 4.0 from GraphPad Software (La Jolla, Calif.) and the Student's t-test."}, "RPMI8226 cells [5]": {"tested_on": "RPMI8226 cells", "experiment": "Viability assay (trypan blue)", "procedure": "as §1, with “Salubrinal treatments were performed using the drug at 5 or 10 μg/ml, as indicated, for 24 hours.” left out\nas §2"}, "U937 cells": {"tested_on": "U937 cells", "experiment": "Bortezomib-induced killing, with or without Salubrinal"}, "U266B1 cells": {"tested_on": "U266B1 cells", "experiment": "Viability assay (trypan blue)", "details": "Salubrinal combined with MG-132 or Bortezomib, 24 hours", "procedure": "as §1, with “Transfection of RPMI8226 cells was performed using Amaxa technology according to the manufacturer's instructions (Gaithersburg, Md.).” left out\nViability assay, Immunoblotting. Cell viability was assessed using trypan blue. […]"}, "CHOP mRNA": {"tested_on": "CHOP mRNA", "experiment": "RT-PCR for CHOP mRNA in RPMI8226 cells", "details": "acute combination of Salubrinal and Bortezomib (4 nM, 8 hours)", "procedure": "as §1, with “Proteasome inhibitor (MG-132, Velcade®; each commercially available) treatments were performed using 400 nM MG-132 or 4 nM Bortezomib (Velcade®) for 24 hours.” left out, “Salubrinal treatments were performed using the drug at 5 or 10 μg/ml, as indicated, for 24 hours.” left out\nas §3"}, "[6]": {"details": "Bortezomib combined with Salubrinal"}},
  "note": "“Also recorded” adds a separate entry of the source. Where a SMILES comes first, the peptide text is derived from it. The star is where a group is joined. Cbz = O=C(OCc1ccccc1)*",
  "data": [
    {"molecule": "CC(C)C[C@H](NC(=O)[C@H](Cc1ccccc1)NC(=O)c1cnccn1)B(O)O", "note": "[Bortezomib]", "values": [
      {"measurement": "sensitivity to Bortezomib", "setting": "[1]; 4 nM Bortezomib", "value": "intermediately sensitive"},
      {"measurement": "cell death (sub-G0 population)", "setting": "RPMI8226 cells [2]", "value": "strongly induced cell death"},
      {"measurement": "sensitivity to Bortezomib", "setting": "[3]", "value": "highly sensitive"},
      {"measurement": "induction of killing", "setting": "HEp3 HNSCC cells; Bortezomib alone", "value": "neither Bortezomib alone nor its combination with Salubrinal was effective"},
      {"measurement": "induction of killing", "setting": "[4]; Bortezomib alone", "value": "neither Bortezomib alone nor its combination with Salubrinal was effective"}
    ]},
    {"molecule": "CC(C)C[C@@H](C=O)NC(=O)[C@H](CC(C)C)NC(=O)[C@H](CC(C)C)NC(=O)OCc1ccccc1", "note": "[MG-132] (Cbz-Leu-Leu-Leu-aldehyde)", "values": [
      {"measurement": "number of cells in G0-G1 in cells surviving proteasome inhibition", "setting": "RPMI8226 cells [2]; MG-132 400 nM or Bortezomib 4 nM for 24 hours, then washout, control about 35%", "value": "55-65%"},
      {"measurement": "cell death (sub-G0 population)", "setting": "RPMI8226 cells [2]", "value": "strongly induced cell death"},
      {"measurement": "eIF2α phosphorylation", "setting": "eIF2α", "value": "increased eIF2α-phosphorylation"},
      {"measurement": "absolute number of viable cells after drug washout and replating", "setting": "RPMI8226 cells [5]; RPMI8226, 400 nM MG-132 for 24 hours, then washed", "value": "remained constant for 7 days"}
    ]},
    {"molecule": "O=C(/C=C/c1ccccc1)NC(NC(=S)Nc1cccc2cccnc12)C(Cl)(Cl)Cl", "note": "(centres unmarked) [Salubrinal]", "values": [
      {"measurement": "enhancement of Bortezomib-induced killing by Salubrinal", "setting": "[1]", "value": "neither of these cell lines was susceptible"},
      {"measurement": "p-eIF2α levels", "setting": "eIF2α; Salubrinal combined with proteasome inhibitor, 8 hours", "value": "highest levels of p-eIF2α"},
      {"measurement": "eIF2α phosphorylation", "setting": "eIF2α", "value": "increased phosphorylation of eIF2α"},
      {"measurement": "enhancement of Bortezomib-induced killing by Salubrinal", "setting": "U937 cells", "value": "neither of these cell lines was susceptible"},
      {"measurement": "basal viability or growth", "setting": "RPMI8226 cells [5]; RPMI8226, 5 μM Salubrinal alone", "value": "no significant induction of cell death; also recorded: no effect"},
      {"measurement": "cell death", "setting": "RPMI8226 cells [5]; RPMI8226, Salubrinal combined with MG-132 or Bortezomib, 24 hours", "value": "70-90%"},
      {"measurement": "reduction in the number of viable cells", "setting": "RPMI8226 cells [5]; arrested cells surviving proteasome inhibition, 5 μM Salubrinal, 24 hours", "value": "approximately 10 fold"},
      {"measurement": "cell death", "setting": "U266B1 cells", "value": "70-90%"},
      {"measurement": "CHOP mRNA", "setting": "CHOP mRNA", "value": "strong induction"},
      {"measurement": "induction of killing", "setting": "HEp3 HNSCC cells; [6]", "value": "neither Bortezomib alone nor its combination with Salubrinal was effective"},
      {"measurement": "induction of killing", "setting": "[4]; [6]", "value": "neither Bortezomib alone nor its combination with Salubrinal was effective"}
    ]}
  ]
}
